Assay [1] deals with Prothrombin (Homo sapiens, UniProt P00734). The assay is described as follows: Thrombin 1536 HTS Dose Response Confirmation. [Related pubchem assays: 1046 (Thrombin 1536 HTS; hits were confirmed in this assay)]. The class given is functional.
For assay [2], the target named is T1, Corticotropin-releasing factor receptor 2/Corticotropin-releasing factor-binding protein (Homo sapiens, UniProt P24387+Q13324).
T1 sequence (Q13324 whole entry): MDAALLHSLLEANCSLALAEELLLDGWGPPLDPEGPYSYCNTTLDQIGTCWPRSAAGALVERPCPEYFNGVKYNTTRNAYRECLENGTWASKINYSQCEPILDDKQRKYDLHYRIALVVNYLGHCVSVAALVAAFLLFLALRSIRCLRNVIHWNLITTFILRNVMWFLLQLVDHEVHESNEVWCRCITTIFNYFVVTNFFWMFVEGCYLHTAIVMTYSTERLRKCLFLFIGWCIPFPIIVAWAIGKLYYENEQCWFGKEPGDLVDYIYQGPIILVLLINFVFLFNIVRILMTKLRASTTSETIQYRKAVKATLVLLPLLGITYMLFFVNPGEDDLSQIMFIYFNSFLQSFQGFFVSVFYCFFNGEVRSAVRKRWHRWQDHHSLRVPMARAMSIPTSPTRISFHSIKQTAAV
T1 sequence (P24387 whole entry): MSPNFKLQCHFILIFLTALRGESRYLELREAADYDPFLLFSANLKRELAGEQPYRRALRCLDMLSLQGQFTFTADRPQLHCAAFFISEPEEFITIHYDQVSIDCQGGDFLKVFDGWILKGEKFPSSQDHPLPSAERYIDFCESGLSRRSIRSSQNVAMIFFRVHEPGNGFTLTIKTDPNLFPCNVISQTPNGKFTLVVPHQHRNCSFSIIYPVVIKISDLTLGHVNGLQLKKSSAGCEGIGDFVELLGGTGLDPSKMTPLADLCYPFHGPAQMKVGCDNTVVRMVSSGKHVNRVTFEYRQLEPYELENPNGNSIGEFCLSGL
The assay is described as follows: activators of CRF receptor 2 with binding protein – uHTS hits, confirmation (AID 602473). The class given is functional. The note with it: read-out: EC50_Mean.

Assay [3] has as its target T2, Voltage-gated N-type calcium channel alpha-1B subunit/Amyloid beta A4 precursor protein-binding family A member 1 (Homo sapiens, UniProt Q00975+Q02410). The class given is protein assay.
Assay [4] concerns the target T2, Voltage-gated N-type calcium channel alpha-1B subunit/Amyloid beta A4 precursor protein-binding family A member 1. It is filed as protein assay. The source holds these as a separate data set.
In assay [5] the test system is Streptococcus sp. 'group A'. The assay is described as follows: growth inhibition of control SK(-) GAS strain, dose response, counter-screen for streptokinase expression inhibitor project, luminescence, kanamycin, BacTiterGlo, confirmation (AID 1900). It is filed as functional, organism-based.
For assay [6], the target named is T3, Streptokinase A (Streptococcus pyogenes serotype M1, UniProt P10520).
T3 sequence (P10520 whole entry): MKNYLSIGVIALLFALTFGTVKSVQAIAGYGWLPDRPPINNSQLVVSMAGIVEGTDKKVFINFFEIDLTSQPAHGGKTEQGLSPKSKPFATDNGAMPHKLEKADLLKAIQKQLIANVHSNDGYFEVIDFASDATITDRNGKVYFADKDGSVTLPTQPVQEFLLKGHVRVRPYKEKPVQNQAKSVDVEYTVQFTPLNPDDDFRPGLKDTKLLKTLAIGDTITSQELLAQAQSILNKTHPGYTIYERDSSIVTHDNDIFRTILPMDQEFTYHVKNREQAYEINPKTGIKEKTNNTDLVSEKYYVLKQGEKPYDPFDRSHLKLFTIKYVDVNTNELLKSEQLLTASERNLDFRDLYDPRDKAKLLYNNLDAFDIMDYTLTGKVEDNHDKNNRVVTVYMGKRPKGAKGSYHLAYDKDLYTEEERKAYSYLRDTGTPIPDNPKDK
The assay is described as follows: S. pyogenes streptokinase expression inhibitors, potency, dose response, plasminogen activation absorbance, OD405 (AID 1914).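 Also: secreted streptokinase activity via plasminogen activation per viability signal from cell pellet.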 The class given is functional, Streptococcus pyogenes M1 GAS.

Assay [7] has as its system Streptococcus. Briefly: Group A Streptococcus viability loss, dose response, counter-screen for streptokinase expression inhibitor project, luminescence, BacTiterGlo (AID 1915).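 Also: potency for reduction of bacterial viability or growth.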 It is filed as functional, organism-based.
Assay [8] can be described thus: THP-1 cell cytotoxicity, dose response, cytotoxicity control for non-replicating M. tuberculosis project (AID 489025). The class given is functional.
Assay [9] in a line: Vero E6 cell cytotoxicity, dose response, cytotoxicity control for non-replicating M. tuberculosis project, secondary assay (AID 492998). It is filed as functional, VeroE6. As to conditions: Vero C1008.
Assay [10] can be described thus: cells. It is filed as functional.
The target of assay [11] is Peroxisome proliferator-activated receptor gamma/Nuclear receptor coactivator 2 (Homo sapiens, UniProt P37231). It is filed as functional.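 Also: agonist potency for raising coactivator recruitment to the receptor.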
The target in assay [12] is Peroxisome proliferator-activated receptor gamma/Nuclear receptor coactivator 1 (Homo sapiens, UniProt P37231). It is filed as functional.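 Also: agonist potency as compounds enhance coactivator SRC-1 recruitment to PPARgamma.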
The target of assay [13] is Peroxisome proliferator-activated receptor gamma/Nuclear receptor coactivator 3 (Homo sapiens, UniProt P37231). It is filed as functional.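 Also: agonist potency for raising coactivator recruitment to the receptor.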
The target in assay [14] is Induced myeloid leukemia cell differentiation protein Mcl-1 (Homo sapiens, UniProt Q07820). It is filed as functional.
The target of assay [15] is T4, Aminopeptidase N (Plasmodium falciparum FcB1/Columbia, UniProt O96935).
T4 sequence (O96935 whole entry): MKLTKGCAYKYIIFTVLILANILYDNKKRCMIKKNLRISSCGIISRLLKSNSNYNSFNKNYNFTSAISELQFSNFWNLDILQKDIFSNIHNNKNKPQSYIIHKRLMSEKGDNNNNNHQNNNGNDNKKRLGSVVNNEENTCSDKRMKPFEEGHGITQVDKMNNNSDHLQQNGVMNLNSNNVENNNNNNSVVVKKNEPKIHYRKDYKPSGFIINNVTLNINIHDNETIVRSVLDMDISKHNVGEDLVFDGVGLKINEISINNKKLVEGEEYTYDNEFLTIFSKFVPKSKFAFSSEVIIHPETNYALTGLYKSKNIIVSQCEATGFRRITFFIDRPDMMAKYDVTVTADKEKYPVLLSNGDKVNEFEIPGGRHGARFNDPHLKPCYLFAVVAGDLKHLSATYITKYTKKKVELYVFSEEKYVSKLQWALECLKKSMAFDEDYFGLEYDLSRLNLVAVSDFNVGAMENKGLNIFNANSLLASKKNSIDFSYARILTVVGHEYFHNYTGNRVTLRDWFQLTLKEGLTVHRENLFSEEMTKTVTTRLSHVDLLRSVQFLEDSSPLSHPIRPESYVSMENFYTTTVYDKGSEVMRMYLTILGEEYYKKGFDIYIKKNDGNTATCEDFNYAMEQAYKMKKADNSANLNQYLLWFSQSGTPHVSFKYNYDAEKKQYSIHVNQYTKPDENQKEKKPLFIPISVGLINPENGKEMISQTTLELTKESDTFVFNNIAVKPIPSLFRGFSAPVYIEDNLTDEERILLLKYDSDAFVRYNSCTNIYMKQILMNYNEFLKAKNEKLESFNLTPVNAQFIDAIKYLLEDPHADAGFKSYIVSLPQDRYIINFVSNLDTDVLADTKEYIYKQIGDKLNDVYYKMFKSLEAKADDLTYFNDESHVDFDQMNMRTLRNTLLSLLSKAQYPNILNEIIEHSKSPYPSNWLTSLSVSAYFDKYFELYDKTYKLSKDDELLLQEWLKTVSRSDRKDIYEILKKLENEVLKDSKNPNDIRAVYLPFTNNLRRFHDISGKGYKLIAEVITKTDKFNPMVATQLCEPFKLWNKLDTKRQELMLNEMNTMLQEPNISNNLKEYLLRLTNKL
The assay is described as follows: P. falciparum M1AAP inhibitors, biochemical, fluorogenic H-Leu-NHMec substrate, 1536-well (AID 1445). Further details: species or system Plasmodium falciparum 3D7, 3D7.

Assay [16] is described as follows: Luminescence Cell-Based Dose Confirmation HTS to Identify Activators of 5'UTR Stem-Loop Driven Alpha-Synuclein mRNA Translation in H4 Neuroglioblastoma Cells. [Related pubchem assays: 1829 (Project Summary), 1814 (Primary HTS)]. It is filed as functional.
The nature of assay [17]: Luminescence Cell-Based Dose Response HTS to Identify Activators of Luciferase Translation or Activity in H4 […] Cells. [Related pubchem assays: 1829 (Project Summary), 1814 (Primary HTS)]. It is filed as functional.
The test system of assay [18] is H4. Briefly: Luminescence Cell-Based Dose Response HTS to Identify Activators of 5'UTR Stem-Loop Driven Prion Protein mRNA Translation in H4 Neuroglioblastoma Cells. [Related pubchem assays: 1829 (Project Summary), 1814 (Primary HTS)]. The class given is functional. As to conditions: Homo sapiens.
For assay [19], the target named is T5, Microphthalmia-associated transcription factor (Homo sapiens, UniProt O75030).
T5 sequence (O75030 whole entry): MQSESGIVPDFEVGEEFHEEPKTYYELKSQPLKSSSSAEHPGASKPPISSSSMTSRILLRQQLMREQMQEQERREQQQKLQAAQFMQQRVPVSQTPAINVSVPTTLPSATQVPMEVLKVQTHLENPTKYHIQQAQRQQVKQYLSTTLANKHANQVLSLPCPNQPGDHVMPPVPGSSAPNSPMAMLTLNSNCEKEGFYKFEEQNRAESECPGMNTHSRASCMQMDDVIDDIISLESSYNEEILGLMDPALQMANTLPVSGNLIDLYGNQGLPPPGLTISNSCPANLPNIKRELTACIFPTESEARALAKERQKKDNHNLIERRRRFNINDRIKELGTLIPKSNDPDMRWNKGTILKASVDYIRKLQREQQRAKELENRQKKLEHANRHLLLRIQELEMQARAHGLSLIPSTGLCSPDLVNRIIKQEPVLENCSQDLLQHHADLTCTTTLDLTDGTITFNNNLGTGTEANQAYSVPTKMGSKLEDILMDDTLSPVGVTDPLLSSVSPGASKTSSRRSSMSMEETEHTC
The assay is described as follows: TRPM1 promoter luciferase signal decrease, dose response, MITF inhibitor project, cell-based, SK-MEL-5, cherry-picked, set 3 (AID 493073).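 Also: SK-MEL-5 melanoma cells with luciferase driven by the MITF target TRPM1 promoter.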 The class given is functional.

The nature of assay [20]: Shn3 3'UTR reporter inhibitors, dose response, cell-based, Clone20 osteoblasts, firefly luciferase, cherry-picked (AID 624132).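 Also: firefly luciferase luminescence from reporter carrying the Shn3 3'UTR in osteoblasts.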 It is filed as functional.
Assay [21] can be described thus: HepG2 cell cytotoxicity, dose response, cytotoxicity control for Shn3 inhibitor project, CellTiter-Glo, cherry-picked (AID 624134). It is filed as functional, cell-based.
Assay [22] can be described thus: control 3'UTR Renilla luciferase suppression, dose response, counter-screen for Shn3 inhibitor project, cell-based, Clone20-Shn3RL, cherry-picked (AID 624133). The class given is functional.

The structures appear in SMILES notation. Activity calls are given as the source filed them. Bounds are passed on as bounds.

T2 sequence (Q00975 whole entry): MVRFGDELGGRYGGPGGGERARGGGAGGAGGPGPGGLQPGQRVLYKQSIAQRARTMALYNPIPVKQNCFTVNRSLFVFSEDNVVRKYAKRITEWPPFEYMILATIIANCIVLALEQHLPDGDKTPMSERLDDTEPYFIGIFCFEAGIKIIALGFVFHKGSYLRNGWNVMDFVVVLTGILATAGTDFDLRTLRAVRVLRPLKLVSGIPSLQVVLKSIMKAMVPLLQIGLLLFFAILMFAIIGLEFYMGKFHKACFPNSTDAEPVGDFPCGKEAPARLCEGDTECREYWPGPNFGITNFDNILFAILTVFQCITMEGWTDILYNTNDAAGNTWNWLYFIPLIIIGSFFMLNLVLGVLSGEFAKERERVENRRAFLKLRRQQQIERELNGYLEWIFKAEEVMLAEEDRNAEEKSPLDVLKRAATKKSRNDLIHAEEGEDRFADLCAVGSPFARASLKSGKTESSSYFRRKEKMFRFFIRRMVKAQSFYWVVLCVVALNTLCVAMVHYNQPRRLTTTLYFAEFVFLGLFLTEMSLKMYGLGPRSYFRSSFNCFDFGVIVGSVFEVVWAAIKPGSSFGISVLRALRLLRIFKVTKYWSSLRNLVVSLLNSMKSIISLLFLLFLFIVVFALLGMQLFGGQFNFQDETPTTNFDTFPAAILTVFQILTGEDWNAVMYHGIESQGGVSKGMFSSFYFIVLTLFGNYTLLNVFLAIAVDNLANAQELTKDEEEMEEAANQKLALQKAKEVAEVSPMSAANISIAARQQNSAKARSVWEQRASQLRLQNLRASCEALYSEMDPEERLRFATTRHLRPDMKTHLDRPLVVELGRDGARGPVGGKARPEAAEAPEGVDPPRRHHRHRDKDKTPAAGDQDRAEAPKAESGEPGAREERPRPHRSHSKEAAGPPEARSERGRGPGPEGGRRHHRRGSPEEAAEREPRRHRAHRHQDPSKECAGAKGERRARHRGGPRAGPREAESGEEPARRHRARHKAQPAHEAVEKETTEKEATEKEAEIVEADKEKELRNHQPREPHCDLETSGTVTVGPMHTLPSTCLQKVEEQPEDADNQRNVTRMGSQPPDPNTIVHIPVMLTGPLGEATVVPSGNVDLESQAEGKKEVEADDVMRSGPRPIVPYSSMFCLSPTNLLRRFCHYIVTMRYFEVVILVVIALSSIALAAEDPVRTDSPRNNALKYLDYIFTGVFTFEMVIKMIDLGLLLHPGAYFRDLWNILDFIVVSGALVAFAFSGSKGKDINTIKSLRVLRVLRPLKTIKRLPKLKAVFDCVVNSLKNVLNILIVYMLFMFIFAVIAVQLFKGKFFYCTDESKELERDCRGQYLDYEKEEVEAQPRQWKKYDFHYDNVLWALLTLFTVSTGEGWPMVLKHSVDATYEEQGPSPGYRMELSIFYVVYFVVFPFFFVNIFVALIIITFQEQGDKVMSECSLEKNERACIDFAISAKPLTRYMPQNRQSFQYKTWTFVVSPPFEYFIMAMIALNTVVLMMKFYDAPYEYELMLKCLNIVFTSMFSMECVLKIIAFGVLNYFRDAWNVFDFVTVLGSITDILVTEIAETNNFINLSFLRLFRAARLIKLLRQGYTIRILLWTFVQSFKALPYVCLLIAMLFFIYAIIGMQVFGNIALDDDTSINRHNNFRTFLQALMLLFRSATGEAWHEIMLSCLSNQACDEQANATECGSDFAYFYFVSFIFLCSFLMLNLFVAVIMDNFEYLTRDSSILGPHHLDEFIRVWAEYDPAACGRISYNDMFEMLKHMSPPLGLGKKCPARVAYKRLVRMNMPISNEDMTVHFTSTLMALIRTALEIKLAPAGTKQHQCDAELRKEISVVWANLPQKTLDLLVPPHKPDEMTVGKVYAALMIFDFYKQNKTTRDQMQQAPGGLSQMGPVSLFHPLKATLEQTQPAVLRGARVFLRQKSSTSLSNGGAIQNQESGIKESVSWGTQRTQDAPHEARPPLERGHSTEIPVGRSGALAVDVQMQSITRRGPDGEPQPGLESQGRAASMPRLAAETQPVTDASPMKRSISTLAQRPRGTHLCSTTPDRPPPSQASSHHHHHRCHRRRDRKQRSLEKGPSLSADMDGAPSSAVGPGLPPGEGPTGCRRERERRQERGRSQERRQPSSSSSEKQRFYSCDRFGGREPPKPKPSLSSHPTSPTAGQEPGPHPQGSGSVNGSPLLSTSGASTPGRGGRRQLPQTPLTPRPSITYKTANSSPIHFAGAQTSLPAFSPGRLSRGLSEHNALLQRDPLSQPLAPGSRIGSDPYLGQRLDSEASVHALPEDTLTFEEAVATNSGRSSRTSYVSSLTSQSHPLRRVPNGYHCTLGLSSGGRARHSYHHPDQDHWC
T2 sequence (Q02410 whole entry): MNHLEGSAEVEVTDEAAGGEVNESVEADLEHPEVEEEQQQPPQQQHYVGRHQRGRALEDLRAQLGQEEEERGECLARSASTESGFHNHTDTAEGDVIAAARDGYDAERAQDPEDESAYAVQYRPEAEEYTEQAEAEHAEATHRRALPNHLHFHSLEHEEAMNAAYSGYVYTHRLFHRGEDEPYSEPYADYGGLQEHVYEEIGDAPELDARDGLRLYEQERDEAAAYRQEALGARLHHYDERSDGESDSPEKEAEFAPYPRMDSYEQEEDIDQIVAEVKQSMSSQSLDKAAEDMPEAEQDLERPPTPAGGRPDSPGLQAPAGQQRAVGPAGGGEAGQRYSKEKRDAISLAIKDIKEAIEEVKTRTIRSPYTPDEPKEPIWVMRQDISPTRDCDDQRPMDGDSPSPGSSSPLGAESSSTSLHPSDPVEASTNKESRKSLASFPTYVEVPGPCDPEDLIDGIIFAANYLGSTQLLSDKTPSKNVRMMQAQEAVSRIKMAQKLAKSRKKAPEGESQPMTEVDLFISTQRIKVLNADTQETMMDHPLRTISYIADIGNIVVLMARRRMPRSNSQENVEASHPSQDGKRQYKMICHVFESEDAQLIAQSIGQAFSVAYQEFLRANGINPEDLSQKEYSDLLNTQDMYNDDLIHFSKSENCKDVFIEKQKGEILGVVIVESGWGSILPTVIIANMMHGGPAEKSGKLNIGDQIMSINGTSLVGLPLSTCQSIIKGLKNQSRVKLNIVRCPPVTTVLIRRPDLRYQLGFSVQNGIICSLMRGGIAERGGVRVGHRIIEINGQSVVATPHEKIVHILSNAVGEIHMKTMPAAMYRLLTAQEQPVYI
Chain of Peroxisome proliferator-activated receptor gamma/Nuclear receptor coactivator 3 (P37231 whole entry): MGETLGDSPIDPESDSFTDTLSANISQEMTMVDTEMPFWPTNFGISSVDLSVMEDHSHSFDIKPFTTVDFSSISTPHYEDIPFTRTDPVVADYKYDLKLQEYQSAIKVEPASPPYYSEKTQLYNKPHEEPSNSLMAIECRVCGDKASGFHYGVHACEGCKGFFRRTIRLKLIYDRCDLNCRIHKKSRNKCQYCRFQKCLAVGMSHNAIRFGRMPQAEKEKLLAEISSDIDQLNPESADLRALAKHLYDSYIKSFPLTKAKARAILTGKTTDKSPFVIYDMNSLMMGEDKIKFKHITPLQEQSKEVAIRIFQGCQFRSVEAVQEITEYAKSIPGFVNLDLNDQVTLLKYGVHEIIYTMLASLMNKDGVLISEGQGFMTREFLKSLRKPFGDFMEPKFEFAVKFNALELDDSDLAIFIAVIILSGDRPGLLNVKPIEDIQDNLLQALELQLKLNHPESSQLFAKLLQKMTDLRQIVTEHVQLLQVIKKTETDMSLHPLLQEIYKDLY
Chain of Peroxisome proliferator-activated receptor gamma/Nuclear receptor coactivator 3 (Q9Y6Q9 whole entry, further chain): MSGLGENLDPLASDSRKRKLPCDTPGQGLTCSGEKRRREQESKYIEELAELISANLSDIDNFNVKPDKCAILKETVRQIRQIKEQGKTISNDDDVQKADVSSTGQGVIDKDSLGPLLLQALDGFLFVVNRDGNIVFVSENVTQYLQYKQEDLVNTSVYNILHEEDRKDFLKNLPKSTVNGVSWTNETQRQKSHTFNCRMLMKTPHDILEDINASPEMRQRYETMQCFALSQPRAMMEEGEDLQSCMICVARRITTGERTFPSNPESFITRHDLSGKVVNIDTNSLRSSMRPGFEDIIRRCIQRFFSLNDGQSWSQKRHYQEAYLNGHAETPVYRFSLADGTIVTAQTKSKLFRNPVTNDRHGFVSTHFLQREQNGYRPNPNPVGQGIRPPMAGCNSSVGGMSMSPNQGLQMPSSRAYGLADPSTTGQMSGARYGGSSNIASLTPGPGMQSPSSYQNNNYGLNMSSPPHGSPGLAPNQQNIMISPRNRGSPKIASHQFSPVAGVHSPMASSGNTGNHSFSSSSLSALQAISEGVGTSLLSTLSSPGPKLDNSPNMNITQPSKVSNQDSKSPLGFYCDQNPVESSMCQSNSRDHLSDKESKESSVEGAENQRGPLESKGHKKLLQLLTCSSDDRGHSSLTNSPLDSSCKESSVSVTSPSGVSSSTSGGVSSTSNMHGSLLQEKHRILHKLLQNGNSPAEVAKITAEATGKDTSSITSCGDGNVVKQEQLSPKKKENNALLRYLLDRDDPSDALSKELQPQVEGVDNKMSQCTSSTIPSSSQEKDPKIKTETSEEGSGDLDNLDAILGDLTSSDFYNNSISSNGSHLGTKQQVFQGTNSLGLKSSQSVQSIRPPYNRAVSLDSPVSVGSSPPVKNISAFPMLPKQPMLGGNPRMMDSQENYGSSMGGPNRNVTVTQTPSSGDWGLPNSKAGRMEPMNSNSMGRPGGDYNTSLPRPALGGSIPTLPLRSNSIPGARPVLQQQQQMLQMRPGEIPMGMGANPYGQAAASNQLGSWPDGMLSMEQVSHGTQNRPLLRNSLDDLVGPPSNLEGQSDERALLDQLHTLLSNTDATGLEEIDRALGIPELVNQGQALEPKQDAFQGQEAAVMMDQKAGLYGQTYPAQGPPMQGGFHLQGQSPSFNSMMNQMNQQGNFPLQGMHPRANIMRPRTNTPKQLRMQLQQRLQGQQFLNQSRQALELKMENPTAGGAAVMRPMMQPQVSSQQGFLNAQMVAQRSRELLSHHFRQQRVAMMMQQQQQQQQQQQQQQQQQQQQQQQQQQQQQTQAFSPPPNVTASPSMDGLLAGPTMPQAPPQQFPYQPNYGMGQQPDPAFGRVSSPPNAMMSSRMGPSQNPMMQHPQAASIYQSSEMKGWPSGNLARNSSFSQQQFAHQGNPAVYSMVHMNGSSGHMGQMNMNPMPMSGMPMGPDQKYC

For `Cc1ccc(C2C=C(c3ccccc3)Nc3nc(N4C(=O)CCC4=O)nn32)cc1` (stereo not given), the IC50 in assay [1] is 10.9 µM (active). For the same compound, the EC50 in assay [2] was > 53 µM (inactive).

In the case of `O=C(NCc1ccco1)c1ccc(Cl)nc1`, the values for the IC50 in [3] and in assay [4] were 26.5 µM (active) and > 50 µM (inactive), respectively.

With `O=C(Nc1nc2ccccc2[nH]1)c1cccc(Cl)c1`, the values for the EC50 in [5], in assay [6] and in assay [7] were 8.88 µM (active), > 150 µM (not active) and 69.4 µM (active), respectively. Further, the CC50 in assay [8] is > 40 µM (active); in assay [9] it was > 20 µM (active). Further, in assay [10], the IC50 is 7.11 µM (active).

`O=c1c2ccccc2nc(-c2ccccc2)n1CCCN1CCOCC1`: the EC50 in [11], in [12] and in [13] was > 79.4 µM (not active) in each case.

On to `CN1CCN(NS(=O)(=O)c2cccs2)CC1`, for which the IC50 in assay [3] is 51.3 µM (active); in assay [4] it was > 50 µM (inactive).

Turning to `Cc1ccc(C(=O)Nc2ccc(N3CCCC3)cc2)cc1`, the EC50 in assay [11], in [12] and in [13] was > 79.4 µM (not active) in each case. In assay [14], the IC50 was 17.9 µM (not active).

In the case of `C=CCn1c(Cc2cccs2)nnc1SCC(=O)c1ccc(F)cc1`, the EC50 in assay [11], in assay [12] and in assay [13] was > 79.4 µM (not active) in each case.

In the case of `COc1ccc(C(=O)Nc2cccc(/C=C(\CCC(=O)O)c3nc4ccccc4s3)c2)cc1`, the IC50 in [15] is 21.8 µM (active); in [3], 4.28 µM (active); in assay [4] it was > 50 µM (inactive); in assay [14], 4.32 µM (active). Besides, the EC50 in assay [5] is 7.83 µM (active); in assay [6], > 50 µM (not active); in assay [7] it was 22.9 µM (active).

On to `O=C(CC(=O)c1cc(Cl)ccc1O)c1ccccc1`, for which the EC50 was 1.08 µM (active) in [5], > 150 µM (not active) in assay [6] and 10.8 µM (active) in [7]. In addition, the CC50 was 14.6 µM (active) in assay [8] and 8.73 µM (active) in assay [9]. Further, in assay [10], the IC50 is 9.73 µM (active).

As for `NC(=O)c1ccsc1NC(=O)CSc1nnc(C2CC2)n1Cc1ccccc1`, in assay [1], the IC50 was > 50 µM (not active).

Take `O=C(CSc1nc2nncc-2c(O)[nH]1)N1CCCCC1`: the IC50 in assay [1] is > 50 µM (not active).

As for `Cn1c(=O)c(C(=O)NC2CCCCCCC2)c(O)c2ccccc21`, the EC50 in assay [11] is 69.1 µM (not active); in assay [12] it was > 79.4 µM (not active); in assay [16] it was 15.6 µM (active); in [17], 22.8 µM (active); in assay [13] it was > 79.4 µM (not active); in assay [18] it was > 120 µM (not active).

On to `Cn1cccc1C(=O)NC(=O)COC(=O)c1ccc(S(C)(=O)=O)c([N+](=O)[O-])c1`, for which the AC50 in [19] was 9.23 µM (active); in [20], 15.1 µM (active); in assay [21], 26 µM (active); in [22], 13.6 µM (active).

Take `CCN(CC)c1ccc(/C=N/c2cc(C)ccc2C)c(O)c1`: the EC50 in assay [11], in assay [12] and in assay [13] was > 79.4 µM (not active) each time.

Values taken from ChEMBL document CHEMBL1201862, “PubChem BioAssay data set” (2004).
